US8933235B2, “Pyridinedione carboxamide inhibitors of endothelial lipase” (Bristol-Myers Squibb Company, priority 2011, dated 2015)

Molecular target: T1, endothelial lipase (EL) (Homo sapiens, UniProt Q9Y5X9)
T1 construct: Conditioned media obtained from HT-1080 cells, which were transformed by RAGE technology (Athersys) to overexpress endogenous EL; endogenous in cells; conditioned medium used as the enzyme source
T1 sequence (Q9Y5X9 21-500): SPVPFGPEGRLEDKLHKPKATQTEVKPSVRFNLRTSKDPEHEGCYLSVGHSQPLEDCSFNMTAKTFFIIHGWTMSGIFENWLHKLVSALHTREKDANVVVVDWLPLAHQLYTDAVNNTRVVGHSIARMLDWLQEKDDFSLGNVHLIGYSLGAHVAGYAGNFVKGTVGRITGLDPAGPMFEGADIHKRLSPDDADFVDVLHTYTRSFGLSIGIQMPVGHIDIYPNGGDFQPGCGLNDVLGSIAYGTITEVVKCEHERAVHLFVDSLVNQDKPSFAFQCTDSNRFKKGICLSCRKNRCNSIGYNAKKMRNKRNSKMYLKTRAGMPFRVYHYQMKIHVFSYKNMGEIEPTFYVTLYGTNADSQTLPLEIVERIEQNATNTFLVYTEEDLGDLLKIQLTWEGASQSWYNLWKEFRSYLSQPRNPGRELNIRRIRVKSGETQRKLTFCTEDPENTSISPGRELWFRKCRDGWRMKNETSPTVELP
Assay: Endothelial lipase (EL) enzymatic assay with fluorescent substrate A10070 in DMPG vesicles
Assay type: biochemical
Conditions: conditioned media from HT-1080 cells overexpressing endogenous EL; 20 min preincubation at 37° C.; read-out: HLE_EL_CRC IC50
Protocol: Endothelial lipase activity was measured using a fluorescent substrate, A10070, (Invitrogen, CA) doped into an artificial vesicle containing DMPG (Avanti Polar Lipids) as the excipient. Vesicles were prepared by combining 285 uL of 1 mM DMPG in a 1:1 mixture of MeOH and CHCl3 with 15 uL of 1 mM A10070 in a 1:1 mixture of MeOH and CHCl3. The mixture was dried under nitrogen and resuspended in 150 uL of 50 mM HEPES pH 8.0 buffer containing 100 mM NaCl and 0.2 mM EDTA. The sample was allowed to sit at rt for 15 min and then was sonicated 3×4 mins on ice with a Branson Sonicator using duty cycle 1. This preparation provides vesicles with a mole fraction of 0.05 for the FRET substrate.
The enzymatic assay was measured using white, opaque 96-well half area plates. Each well contained 60 uL of assay buffer (50 mM HEPES pH 8.0, 50 mM NaCl and 1 mM CaCl2) and 2 ul of a DMSO solution containing compound of interest. Conditioned media obtained from HT-1080 cells, which were transformed by RAGE technology (Athersys) to overexpress endogenous EL, was added and the reaction was allowed to incubate for 20 min at 37° C. with gentle agitation. The reaction was started by the addition of 20 uL of a 1:4 dilution of vesicles. The final total reaction volume was 100 uL. The reaction rates were measured on a Gemini plate reader with an excitation wavelength of 488 nm and a emission of 530 nm. Readings were taken every 20 seconds for 10 min with agitation between each reading. The slope of the linear portion of the readout was used to calculate the rate of the reaction.

| IC50 [nM] | Structure (SMILES) |
| --- | --- |
| 167 | Cn1ccc(C(=O)NC(CCc2ccc(Cl)c(Cl)c2)c2ccccc2)c(O)c1=O (single isomer, unassigned) [Example 120, N-(3-(3,4-dichlorophenyl)-1-phenylpropyl)-3-hydroxy-1-methyl-2-oxo-1,2-dihydropyridine-4-carboxamide] |
| 216 | Cn1ccc(C(=O)NCCCOc2cccc(F)c2)c(O)c1=O [Example 142, N-(3-(3-fluorophenoxy)propyl)-3-hydroxy-1-methyl-2-oxo-1,2-dihydropyridine-4-carboxamide] |
| < 10 | Cn1c(-c2cc(F)cc(C(F)(F)F)c2)cc(C(=O)NCCCOc2ccccc2Cl)c(O)c1=O [Example 48, N-(3-(2-chlorophenoxy)propyl)-6-(3-fluoro-5-(trifluoromethyl)phenyl)-3-hydroxy-1-methyl-2-oxo-1,2-dihydropyridine-4-carboxamide] |
| < 10 | Cn1c(-c2cc(F)cc(C(F)(F)F)c2)cc(C(=O)NCCCOc2ccc(Cl)c(Cl)c2)c(O)c1=O [Example 77, N-(3-(3,4-dichlorophenoxy)propyl)-6-(3-fluoro-5-(trifluoromethyl)phenyl)-3-hydroxy-1-methyl-2-oxo-1,2-dihydropyridine-4-carboxamide] |
